The source of these data is patent publication US20080090278A1, “METHOD FOR ENHANCING STABILITY OF A COMPOSITION COMPRISING SOLUBLE GLUCOSE DEHYDROGENASE (GDH)” (TOYO BOSEKI KABUSHIKI KAISHA, priority 2006, published 2008).

Molecules are shown by their SMILES.

The test system of series [1] is recombinant FAD-GDH (rAT-FAD-GDH) derived from Aspergillus terreus. Briefly: Thermal stabilization effect of stabilizing agents on rAT-FAD-GDH in solution (Example 9). Type of series: physicochemical. Particulars: for Residual activity ratio (%) / GLD activity value (U/ml) 50° C., 15 min: Table 10, buffer 50 mM K-PB, stabilizer at each final concentration described in Table 1; for Residual activity ratio (%): 50° C., 15 min versus 4° C.; for thermal stabilization effect on FAD-GDH (in words): rAT-FAD-GDH, 50° C. for 15 minutes, Example 9. On the procedure: (§1) The reaction reagent (3 mL) is preliminarily heated at 37° C. for 5 minutes. The GDH solution (0.1 mL) is added and gently mixed, subsequently the change of absorbance at 600 nm is recorded for 5 minutes using the spectrophotometer controlled to 37° C. using water as the control, and the change of absorbance per one minute (ΔODTEST) is calculated from the linear portion of the record. The solvent in which GDH will be dissolved in place of the blinded GDH solution is added to the reagent mixture, and the change of absorbance (ΔODBLANK) per one minute is measured. The GDH activity is calculated from these values according to the following formula. One unit (U) in the GDH activity is defined as the amount of the enzyme which reduces […] DCPIP for one minute in the presence of 200 mM D-glucose.
Two tubes in which each stabilizing agent described in Table 1 had been added at each final concentration to 0.9 mL of this enzyme solution to make the total volume 1.0 mL were prepared.
In two tubes, one tube was stored at 4° C. and another tube was treated at 50° C. for 15 minutes. Then, the FAD-GDH activity in each tube was measured. The enzyme activity in the tube stored at 4° C. was made 100, and comparing with it, the activity value after being treated at 50° C. for 15 minutes was calculated as the residual activity ratio (%).

Series [2] has as its system recombinant FAD-GDH (rAO-FAD-GDH) derived from Aspergillus oryzae. In words: Thermal stabilization effect of stabilizing agents on rAO-FAD-GDH in solution (Examples 3-6). Type of series: physicochemical. Particulars: for thermal stabilization effect on FAD-GDH (in words): 50° C. for 15 minutes, Example 3. How it is done:
Enhancement of the thermal stability referred to herein means increasing of a residual ratio (%) of the GDH enzyme kept after giving the treatment with heat at a certain temperature for a certain time period to the composition comprising the GDH enzyme. In the present invention, the activity in the sample stored at 4° C. which is nearly completely kept is made 100%, this is compared with the activity in the GDH solution after giving the treatment with heat at a certain-temperature for a certain time period, and the residual ratio of the enzyme is calculated.
In the method for measuring the activity described in the method for measuring the GDH enzyme activity described later, an activity value (a) of GDH in the solution stored at 4° C. and an activity value (b) of GDH after giving the treatment with heat at a certain temperature for a certain time period were measured, a relative value[(b)/(a)×100] when the activity value (a) was made 100 was calculated. This relative value was made the residual ratio (%). Comparing the presence with the absence of the added compound, when the residual ratio was increased by the addition of the compound, it was determined that the thermal stability was enhanced.
In the present invention, the activity of FAD-dependent GDH is measured as follows.
The reaction-reagent is made by mixing 15.6 mL of the PIPES buffer, 0.2 mL of the DCPIP solution and 4 mL of the D-glucose solution.
as §1, with “D-glucose. Activity (U/mL)=[−(ΔODTEST−ΔODBLANK)×3.0×dilution scale]/(16.3×0.1×1.0) In the above formula, 3.0 represents a liquid amount (mL) of the reaction reagent+the enzyme solution, 16.3 represents a millimolar molecular absorbance coefficient (cm^2/μmol) in the condition for measuring this enzyme, 0.1 represents the liquid amount of the enzyme solution (mL) and 1.0 represents a light path length (cm) of the cell.” for “D-glucose.”
The study was performed in accordance with the method for measuring the FAD-GDH activity in Test Example 1 described above.
First, 50 mL of an enzyme solution obtained by dissolving the recombinant FAD-GDH (rAO-FAD-GDH)-derived from Aspergillus oryzae obtained in Example 1 at about 2 U/mL in an enzyme dilution solution (50 mM potassium phosphate buffer, pH 5.5, 0.1% Triton X-100) was prepared. Two tubes in which each stabilizing agent described in Table 1 had been added at each final concentration to 0.9 mL of this enzyme solution to make the total volume 1.0 mL were prepared.
In two tubes, one tube was stored at […] and another tube was treated at 50° C. for 15 minutes. Then, the FAD-GDH activity in each tube was measured. The enzyme activity in the tube stored at 4° C. was made 100, and comparing with it, the activity value after being treated at 50° C. for 15 minutes was calculated as the residual activity ratio (%).
The method was in accordance with Example 3 described above.
The methods were in accordance with Example 3 above.

[3] abbreviates: stabilizer final concentration 1%, rAO-FAD-GDH about 2 U/mL, 50 mM potassium phosphate buffer pH 5.5, 0.1% Triton X-100, 4° C. sample = 100.
The mark [4] stands for this setting: stabilizer final concentration 0.10%, rAO-FAD-GDH, pH 5.5.

For `CC[C@H](C)[C@H](N)C(=O)O` (racemic) [DL-isoleucine], in series [1], the “Residual activity ratio (%)” value was found to be 1.7% and the “GLD activity value (U/ml) 50° C., 15 min” value is 0.047 U/ml. Moreover, the “Residual activity ratio (%) after treatment at 50° C., 15 min” value (“Residual activity ratio (%) … 15 min” below) in series [2] (stabilizer final concentration 0.25%, rAO-FAD-GDH, pH 5.5) came out at 23.4%.

Take `OC[C@@H](O)[C@H]1OC[C@H](O)[C@H]1O` [1,4-sorbitane]: in series [1], the “Residual activity ratio (%)” value stood at 2.5%; the “GLD activity value (U/ml) 50° C., 15 min” value was 0.072 U/ml; the “thermal stabilization effect on FAD-GDH (in words)” value (“thermal stabilization effect” below) was “high effect”. For the same molecule, the “thermal stabilization effect” value in series [2] (rAO-FAD-GDH) is reported as “high effect”. Further, the “Residual activity ratio (%) … 15 min” value in series [2] (setting [3]) is listed as 26.7%.

In the case of `O=CC[C@@H](O)[C@H](O)[C@H](O)CO` [2-deoxy-D-glucose], in series [1], the “Residual activity ratio (%)” value was 36.9%; the “GLD activity value (U/ml) 50° C., 15 min” value was 1.032 U/ml; the “thermal stabilization effect” value is given as “high effect”. For the same molecule, the “thermal stabilization effect” value in series [2] (rAO-FAD-GDH) is “high effect”. The “Residual activity ratio (%) … 15 min” value in series [2] (setting [3]) came out at 69.6%.

Regarding `N.N.O=S(=O)(O)O` [Ammonium sulfate], the “thermal stabilization effect” value in series [1] and in series [2] (rAO-FAD-GDH) was “high effect” throughout.

Take `OC[C@H]1O[C@@](CO)(O[C@H]2O[C@H](CO)[C@@H](O)[C@H](O)[C@H]2O)[C@@H](O[C@H]2O[C@H](CO)[C@@H](O)[C@H](O)[C@H]2O)[C@@H]1O` [D-(+)-melezitose]: in series [1], the “Residual activity ratio (%)” value is given as 6.9%; the “GLD activity value (U/ml) 50° C., 15 min” value was determined as 0.193 U/ml; the “thermal stabilization effect” value is reported as “high effect”. Also, the “thermal stabilization effect” value in series [2] (rAO-FAD-GDH) is recorded as “high effect”. Further, in series [2] (setting [3]), the “Residual activity ratio (%) … 15 min” value was 44.7%.

For `O=C[C@H](O)[C@@H](O)[C@H](O)CO` [D-(+)-xylose], in series [1], the “Residual activity ratio (%)” value worked out at 18.5%; the “GLD activity value (U/ml) 50° C., 15 min” value is listed as 0.516 U/ml; the “thermal stabilization effect” value is listed as “high effect”. Moreover, the “thermal stabilization effect” value in series [2] (rAO-FAD-GDH) was “high effect”. Further, the “Residual activity ratio (%) … 15 min” value in series [2] (setting [3]) turned out to be 68.5%.

With `O=C[C@@H](O)[C@H](O)[C@H](O)CO` [D-(−)-arabinose], in series [1], the “Residual activity ratio (%)” value is 2.5%; the “GLD activity value (U/ml) 50° C., 15 min” value is 0.069 U/ml; the “thermal stabilization effect” value was “high effect”. In addition, the “thermal stabilization effect” value in series [2] (rAO-FAD-GDH) is given as “high effect”. The “Residual activity ratio (%) … 15 min” value in series [2] (setting [3]) amounted to 23.0%.

`O=C(CO)[C@@H](O)[C@H](O)[C@H](O)CO` [D-(−)-fructose]: in series [1], the “Residual activity ratio (%)” value stood at 2.7%; the “GLD activity value (U/ml) 50° C., 15 min” value worked out at 0.075 U/ml; the “thermal stabilization effect” value is given as “high effect”. Moreover, in series [2] (rAO-FAD-GDH), the “thermal stabilization effect” value is on record as “high effect”. Further, the “Residual activity ratio (%) … 15 min” value in series [2] (setting [3]) is given as 25.9%.

As to `C[C@H](N)C(=O)O` [D-a-alanine], in series [1], the “Residual activity ratio (%)” value is given as 3.2%; the “GLD activity value (U/ml) 50° C., 15 min” value came out at 0.09 U/ml; the “thermal stabilization effect” value is given as “high effect”. In series [2] (rAO-FAD-GDH), the “thermal stabilization effect” value is “high effect”. In series [2] (setting [3]), the “Residual activity ratio (%) … 15 min” value turned out to be 27.1%.

`O=C(O)C1OC(O)C(O)C(O)C1O` [D-a-galacturonic acid]: in series [1], the “Residual activity ratio (%)” value was determined as 0.2% and the “GLD activity value (U/ml) 50° C., 15 min” value was found to be 0.004 U/ml. In series [2] (setting [3]), the “Residual activity ratio (%) … 15 min” value is 0.0%.

In the case of `N[C@H](CCC(=O)O)C(=O)O` [D-glutamic acid], in series [1], the “Residual activity ratio (%)” value is 5.6%; the “GLD activity value (U/ml) 50° C., 15 min” value came to 0.149 U/ml; the “thermal stabilization effect” value is “high effect”. For the same molecule, the “thermal stabilization effect” value in series [2] (rAO-FAD-GDH) is “high effect”. Moreover, the “Residual activity ratio (%) … 15 min” value in series [2] (setting [4]) turned out to be 23.2%.

As for `N[C@H](Cc1ccccc1)C(=O)O` [D-phenylalanine], in series [1], the “Residual activity ratio (%)” value is recorded as 2.3% and the “GLD activity value (U/ml) 50° C., 15 min” value is recorded as 0.062 U/ml. Further, the “Residual activity ratio (%) … 15 min” value in series [2] (setting [4]) is 23.6%.

As to `O=C(O)[C@H]1CCCN1` [D-proline], in series [1], the “Residual activity ratio (%)” value was determined as 2.8% and the “GLD activity value (U/ml) 50° C., 15 min” value stood at 0.079 U/ml. Also, the “Residual activity ratio (%) … 15 min” value in series [2] (setting [3]) is 24.8%.

Take `O=C[C@H](O)[C@@H](O)[C@H](O)[C@H](O)C(=O)[O-].[Na+]` [D-sodium glucuronate]: in series [1], the “Residual activity ratio (%)” value was determined as 10.0%; the “GLD activity value (U/ml) 50° C., 15 min” value is reported as 0.279 U/ml; the “thermal stabilization effect” value is “high effect”. The “thermal stabilization effect” value in series [2] (rAO-FAD-GDH) is “high effect”. The “Residual activity ratio (%) … 15 min” value in series [2] (setting [3]) stood at 56.2%.

`O=C[C@H](O)[C@@H](O)[C@@H](O)[C@H](O)CO` [Galactose]: in series [1], the “Residual activity ratio (%)” value is given as 17.2%; the “GLD activity value (U/ml) 50° C., 15 min” value was found to be 0.495 U/ml; the “thermal stabilization effect” value is recorded as “high effect”. Further, the “thermal stabilization effect” value in series [2] (rAO-FAD-GDH) was “high effect”. Besides, in series [2] (setting [3]), the “Residual activity ratio (%) … 15 min” value is 60.6%.

On to `O=C1O[C@H](CO)[C@@H](O)[C@H](O)[C@H]1O` [Glucono-1,5-lactone], for which, in series [1], the “Residual activity ratio (%)” value is 0.1% and the “GLD activity value (U/ml) 50° C., 15 min” value is 0.003 U/ml. Besides, in series [2] (setting [3]), the “Residual activity ratio (%) … 15 min” value turned out to be 0.0%.

For the molecule `O=C(O)CCCC(=O)O` [Glutaric acid], the “thermal stabilization effect” value in series [1] and in series [2] (rAO-FAD-GDH) was “high effect” in each case.

As to `O=C(O)[C@@H]1CCCN1` [L-(−)-proline], in series [1], the “Residual activity ratio (%)” value was determined as 1.8% and the “GLD activity value (U/ml) 50° C., 15 min” value is recorded as 0.048 U/ml. In addition, in series [2] (setting [3]), the “Residual activity ratio (%) … 15 min” value was found to be 25.2%.

For `N=C(N)NCCC[C@H](N)C(=O)O` [L-arginine], in series [1], the “Residual activity ratio (%)” value is 0.1% and the “GLD activity value (U/ml) 50° C., 15 min” value turned out to be 0.001 U/ml. Moreover, in series [2] (setting [3]), the “Residual activity ratio (%) … 15 min” value amounted to 1.1%.

For the molecule `NC(=O)C[C@H](N)C(=O)O` [L-asparagine], in series [1], the “Residual activity ratio (%)” value worked out at 1.6% and the “GLD activity value (U/ml) 50° C., 15 min” value was 0.044 U/ml. The “Residual activity ratio (%) … 15 min” value in series [2] (stabilizer final concentration 0.20%, rAO-FAD-GDH, pH 5.5) amounted to 22.8%.
